From patent publication US20110172147A1, “NEUROPEPTIDE-2 RECEPTOR (Y-2R) AGONISTS” (priority 2009, published 2011)
*1 amine or outer side, *2 acyl side, *3 side chain or, on linkers, in order; H or OH if unused. Where a SMILES comes first, the peptide text is derived from it. [ ]: non-standard residue; d: D form. The star is where a group is joined. MeO(CH2CH2O)23CH2CH2CO = COCCOCCOCCOCCOCCOCCOCCOCCOCCOCCOCCOCCOCCOCCOCCOCCOCCOCCOCCOCCOCCOCCOCCOCCC(=O)*; X1 = O=C(Cn1cnc2ccc(N3CCN([*:1])CC3)cc2c1=O)[*:2]; Arachidoyl = CCCCCCCCCCCCCCCCCCCC(=O)*; NMeR = CN[C@@H](CCCNC(=N)N)C(=O)O; Cit = NC(=O)NCCC[C@H](N)C(=O)O; Guanidino = N=C(N)N*

Legend:
Format in all cases: cell-based
[1] = molecular target: T1, hNPY2R (Homo sapiens, UniProt P49146); assay: cAMP Agonist Assay, HEK293/hNPY2R; parameters: expressed in transfected cells; host or cells: HEK293/hNPY2R (G418 selection)
T1 sequence (P49146 1-381): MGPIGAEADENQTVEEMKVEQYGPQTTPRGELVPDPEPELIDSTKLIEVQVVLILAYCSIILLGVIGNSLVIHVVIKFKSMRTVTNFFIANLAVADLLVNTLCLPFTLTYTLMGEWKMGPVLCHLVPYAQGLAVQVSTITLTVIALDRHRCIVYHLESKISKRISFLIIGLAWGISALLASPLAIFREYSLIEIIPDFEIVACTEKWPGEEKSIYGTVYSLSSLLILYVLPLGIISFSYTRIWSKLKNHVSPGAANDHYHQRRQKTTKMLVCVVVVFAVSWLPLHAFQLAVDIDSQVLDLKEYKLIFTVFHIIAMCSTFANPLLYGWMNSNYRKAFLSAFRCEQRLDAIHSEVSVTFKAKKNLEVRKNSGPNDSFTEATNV
Procedure: In this example, the following materials were used: 384-well plate; Tropix cAMP-Screen Kit; cAMP ELISA System (Applied Biosystems, cat. #T1505; CS 20000); Forskolin (Calbiochem cat. # 344270); cells: HEK293/hNPY2R; growth medium: Dulbecco's modified eagle medium (D-MEM, Gibco); 10% Fetal bovine serum (FBS, Gibco), heat-inactivated; 1% Penicillin/Streptomycin (Pen 10000 unit/mL: Strep […], Gibco); […] G418 (Geneticin, Gibco cat. # 11811-031); and plating medium: DMEM/F12 w/o phenol red (Gibco); 10% FBS (Gibco, cat. # 10082-147), heat-inactivated; 1% Penicillin/Streptomycin (Gibco, cat. # 15140-122); […] G418 (Geneticin, Gibco, cat. # 11811-031).
On the first day, medium was discarded, and the monolayer cells were washed with 10 mL PBS per flask (T225). After decanting with PBS, 5 mL VERSENE (Gibco, cat #1504006) was used to dislodge the cells (5 min @37 C). The flask was gently tapped and the cell suspension was pooled. Each flask was rinsed with 10 mL plating medium and centrifuged at 1000 rpm for 5 min. The suspension was pooled and counted. The suspension was resuspended in plating medium at a density of 2.0×10^5 cells/mL for HEK293/hNPY2R. 50 microliters of cells (HEK293/hNPY2R-10,000 cells/well) were transferred into the 384-well plate using Multi-drop dispenser. The plates were incubated at 37° C. overnight. On the second day, the cells were checked for 75-85% confluence. The media and reagents were allowed to come to room temperature. Before the dilutions were prepared, the stock solution of stimulating compound in dimethyl sulphoxide (DMSO, Sigma, cat #D2650) was allowed to warm up to 32 C for 5-10 min. The dilutions were prepared in DMEM/F12 with 0.5 mM 3-Isobutyl-1-methylxanthine (IBMX, Calbiochem, cat #410957) and 0.5 mg/mL BSA. The final DMSO concentration in the stimulation medium was 1.1% with Forskolin concentration of 5 μM. The cell medium was tapped off with a gentle inversion of the cell plate on a paper towel. 50 μL of stimulation medium was placed per well (each concentration done in four replicates). The plates were incubated at room temperature for 30 min, and the cells were checked under a microscope for toxicity. After 30 minutes of treatment, the stimulation media was discarded and […] of Assay Lysis Buffer (provided in the Tropix kit) was added. The plates were incubated for 45 min @ 37° C. 20 μL of the lysate was transferred from stimulation plates into the pre-coated antibody plates (384-well) from the Tropix kit. 10 μL of AP conjugate and 20 μL of anti-cAMP antibody was added. The plates were incubated at room temperature while shaking for 1 hour. The plates were then washed 5 times with Wash Buffer, 70 μL per well for each wash. The plates were tapped to dry. 30 μL/well of CSPD/Saphire-II RTU substrate/enhancer solution was added and incubated for 45 min @ RT (shake). Signal for 1 sec/well in a Luminometer. (VICTOR-V) was measured.

[2] = molecular target: T1, hNPY2R; assay: CaFlux Assay (FLIPR), Y2R; parameters: expressed in transfected cells; host or cells: HEK-293 stably transfected with G protein chimera Gαqi9
Procedure: HEK-293 cells were stably transfected with the G protein chimera Gαqi9 and the hygromycin-B resistance gene were further transfected with the human NPY2 receptor and G418 antibiotic selection. Following selection in both hygromycin-B and G418, individual clones were assayed for their response to PYY. The transfected cells were cultured in DMEM medium supplemented with 10% fetal bovine serum, 50 μg/mL hygromycin-B, 2 mM glutamine, 100 U/mL penicillin, 100 μg/mL streptomycin and 250 μg/mL G418. Cells are harvested with trypsin-EDTA and counted using ViaCount reagent. The cell suspension volume is adjusted to 4.8×10^5 cells/mL with complete growth media. Aliquots of 25 μL are dispensed into 384 well Poly-D Lysine coated black/clear microplates (Falcon) and the microplates were placed in a 37° C. CO2 incubator overnight. Loading Buffer (Calcium-3 Assay Kit, Molecular Devices) was prepared by dissolving the contents of one vial (Express Kit) into […] Hank's Balanced Salt Solution containing 20 mM HEPES and 5 mM probenecid. Aliquots of 25 μL of diluted dye were dispensed into the cell plates and the plates are then incubated for 1 hour at 37° C. During the incubation, test compounds were prepared at 3.5× the desired concentration in HBSS (20 mM HEPES)/0.05% BSA/1% DMSO and transferred to a 384-well plate for use on FLIPR. After incubation, both the cell and compound plates were brought to the FLIPR and 20 μL of the diluted compounds were transferred to the cell plates by the FLIPR. During the assay, fluorescence readings were taken simultaneously from all 384 wells of the cell plate every 1.5 seconds. Five readings were taken to establish a stable baseline, and then 20 μL of sample was rapidly (30 μL/sec) and simultaneously added to each well of the cell plate. The fluorescence was continuously monitored before, during and after sample addition for a total elapsed time of 100 seconds. Responses (increase in peak fluorescence) in each well following addition were determined. The initial fluorescence reading from each well, prior to ligand stimulation, was used as a zero baseline value for the data from that well. The responses are expressed as % of maximal response of the positive control.

[3] = molecular target: T2, Y1R (Homo sapiens, UniProt P25929); assay: CaFlux Assay (FLIPR), Y1R
T2 sequence (P25929 1-384): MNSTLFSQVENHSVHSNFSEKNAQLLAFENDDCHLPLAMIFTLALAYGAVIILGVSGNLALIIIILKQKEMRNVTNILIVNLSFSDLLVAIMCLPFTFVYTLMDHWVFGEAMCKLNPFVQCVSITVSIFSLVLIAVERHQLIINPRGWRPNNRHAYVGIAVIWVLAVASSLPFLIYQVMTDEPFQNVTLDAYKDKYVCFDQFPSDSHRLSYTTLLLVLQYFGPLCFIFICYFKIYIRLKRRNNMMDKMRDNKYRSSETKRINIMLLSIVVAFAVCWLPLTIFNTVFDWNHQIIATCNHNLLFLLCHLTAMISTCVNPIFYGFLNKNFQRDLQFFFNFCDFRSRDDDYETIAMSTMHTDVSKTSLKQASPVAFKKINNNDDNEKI

[4] = molecular target: Y4R (Homo sapiens, UniProt P50391); assay: CaFlux Assay (FLIPR), Y4R
Sequence of Y4R (P50391 whole entry): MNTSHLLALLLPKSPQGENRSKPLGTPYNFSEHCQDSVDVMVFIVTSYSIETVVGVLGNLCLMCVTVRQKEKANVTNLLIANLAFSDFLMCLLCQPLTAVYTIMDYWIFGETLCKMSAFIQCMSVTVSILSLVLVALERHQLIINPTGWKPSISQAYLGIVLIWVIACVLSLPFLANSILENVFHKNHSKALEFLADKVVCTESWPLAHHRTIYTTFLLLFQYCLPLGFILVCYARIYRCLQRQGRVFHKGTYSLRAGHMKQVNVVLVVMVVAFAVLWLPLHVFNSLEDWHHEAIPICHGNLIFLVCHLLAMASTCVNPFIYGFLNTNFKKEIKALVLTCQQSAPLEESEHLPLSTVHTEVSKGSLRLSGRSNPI

[5] = molecular target: T3, Y5R (Homo sapiens, UniProt Q15761); assay: CaFlux Assay (FLIPR), Y5R
T3 sequence (Q15761 1-445): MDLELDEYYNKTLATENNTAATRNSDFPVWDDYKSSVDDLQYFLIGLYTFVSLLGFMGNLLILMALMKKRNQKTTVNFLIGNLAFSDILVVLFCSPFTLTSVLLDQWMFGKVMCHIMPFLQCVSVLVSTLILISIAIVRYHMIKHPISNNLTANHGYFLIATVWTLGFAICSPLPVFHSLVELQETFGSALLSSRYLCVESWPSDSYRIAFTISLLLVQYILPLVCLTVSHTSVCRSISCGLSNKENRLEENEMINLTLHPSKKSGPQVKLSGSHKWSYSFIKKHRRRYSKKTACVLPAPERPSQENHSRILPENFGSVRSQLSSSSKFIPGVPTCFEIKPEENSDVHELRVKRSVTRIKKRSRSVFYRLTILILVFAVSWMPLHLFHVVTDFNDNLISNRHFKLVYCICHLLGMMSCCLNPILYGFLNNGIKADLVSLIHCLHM

SMILES | EC50 [1] [nM] | EC50 [2] [nM] | EC50 [3] [nM] | EC50 [4] [nM] | EC50 [5] [nM]
CCCCCCCCCCCCCCCCCCCC(=O)N[C@@H](CCC(=O)N[C@@H](CCC(=O)N[C@H](C(=O)N[C@@H](CCCCNC(=O)CCOCCOCCOCCOCCOCCOCCOCCOCCOCCOCCOCCOCCOCCOCCOCCOCCOCCOCCOCCOCCOCCOCCOCCOC)C(=O)N1CCN(c2ccc3ncn(CC(=O)N[C@@H](CCCNC(=N)N)C(=O)N[C@@H](Cc4c[nH]cn4)C(=O)N[C@@H](Cc4ccc(O)cc4)C(=O)N[C@@H](CC(C)C)C(=O)N[C@@H](CC(N)=O)C(=O)N[C@@H](Cc4c[nH]c5ccccc45)C(=O)N[C@H](C(=O)N[C@H](C(=O)N[C@@H](CCCNC(=N)N)C(=O)N[C@@H](CCC(N)=O)C(=O)N(C)[C@@H](CCCNC(=N)N)C(=O)N[C@@H](Cc4ccc(O)cc4)C(N)=O)[C@@H](C)O)C(C)C)c(=O)c3c2)CC1)[C@@H](C)CC)C(=O)O)C(=O)O [Example 60] | 0.29 | 0.18 | > 9000 | > 9000 | 2600
CCCCCCCCCCCCCCCCCCCC(=O)N[C@@H](CCC(=O)O)C(=O)N[C@@H](CCC(=O)O)C(=O)N[C@H](C(=O)N[C@@H](CCCCNC(=O)CCOCCOCCOCCOCCOCCOCCOCCOCCOCCOCCOCCOCCOCCOCCOCCOCCOCCOCCOCCOCCOCCOCCOCCOC)C(=O)N1CCN(c2ccc3ncn(CC(=O)N[C@@H](CCCNC(=N)N)C(=O)N[C@@H](Cc4c[nH]cn4)C(=O)N[C@@H](Cc4ccc(O)cc4)C(=O)N[C@@H](Cc4c[nH]cn4)C(=O)N[C@@H](CC(N)=O)C(=O)N[C@@H](Cc4c[nH]c5ccccc45)C(=O)N[C@H](C(=O)N[C@H](C(=O)N[C@@H](CCCNC(=N)N)C(=O)N[C@@H](CCC(N)=O)C(=O)N[C@@H](CCCNC(=N)N)C(=O)N[C@@H](Cc4ccc(O)cc4)C(N)=O)[C@@H](C)O)C(C)C)c(=O)c3c2)CC1)[C@@H](C)CC [Example 57] (Arachidoyl-EEIK(MeO(CH2CH2O)23CH2CH2CO)[X1]RHYHNWVTRQRY-NH2) | 0.011 | 0.016 | > 6000 | > 6000 | 5.67
CCCCCCCCCCCCCCCCCCCC(=O)N[C@@H](CCC(=O)O)C(=O)N[C@@H](CCC(=O)O)C(=O)N[C@H](C(=O)N[C@@H](CCCCNC(=O)CCOCCOCCOCCOCCOCCOCCOCCOCCOCCOCCOCCOCCOCCOCCOCCOCCOCCOCCOCCOCCOCCOCCOCCOC)C(=O)N1CCN(c2ccc3ncn(CC(=O)N[C@@H](CCCNC(N)=O)C(=O)N[C@@H](Cc4c[nH]cn4)C(=O)N[C@@H](Cc4ccc(O)cc4)C(=O)N[C@@H](CC(C)C)C(=O)N[C@@H](CC(N)=O)C(=O)N[C@@H](Cc4c[nH]c5ccccc45)C(=O)N[C@H](C(=O)N[C@H](C(=O)N[C@@H](CCC(=O)NC(=N)N)C(=O)N[C@@H](CCC(N)=O)C(=O)N(C)[C@@H](CCCNC(=N)N)C(=O)N[C@@H](Cc4ccc(O)cc4)C(N)=O)[C@@H](C)O)C(C)C)c(=O)c3c2)CC1)[C@@H](C)CC [Example 51] (Arachidoyl-EEIK(MeO(CH2CH2O)23CH2CH2CO)[X1][Cit]HYLNWVTE(Guanidino)Q[NMeR]Y-NH2) | 5.5 | 9.4 | > 6000 | > 6000 | > 6000
CCCCCCCCCCCCCCCC(=O)NCCCCCC(=O)NCCCC[C@H](NC(=O)[C@@H](NC(=O)CCOCCOCCOCCOCCOCCOCCOCCOCCOCCOCCOCCOCCOCCOCCOCCOC)[C@@H](C)CC)C(=O)N1CCN(c2ccc3ncn(CC(=O)N[C@@H](CCCNC(=N)N)C(=O)N[C@@H](Cc4c[nH]cn4)C(=O)N[C@@H](Cc4ccc(O)cc4)C(=O)N[C@@H](CC(C)C)C(=O)N[C@@H](CC(N)=O)C(=O)N[C@@H](Cc4c[nH]c5ccccc45)C(=O)N[C@H](C(=O)N[C@H](C(=O)N[C@@H](CCCNC(=N)N)C(=O)N[C@@H](CCC(N)=O)C(=O)N(C)[C@@H](CCCNC(=N)N)C(=O)N[C@@H](Cc4ccc(O)cc4)C(N)=O)[C@@H](C)O)C(C)C)c(=O)c3c2)CC1 [Example 10] | 0.13 | 0.04 | > 5000 | > 5000 | 816
